{"source": "paper PMC2882332", "about": "“Species Used for Drug Testing Reveal Different Inhibition Susceptibility for 17beta-Hydroxysteroid Dehydrogenase Type 1” (PLoS ONE, 2010)", "key": {"human 17β-HSD 1": {"target": "T1, human 17β-HSD 1 (Homo sapiens, UniProt P14061)", "T1 construct": "Full length cDNAs of several 17β-HSDs type 1 originating from different species were cloned; made in house; host or cells: E.coli BL21 DE3 Codon Plus RP", "T1 sequence (P14061 1-328)": "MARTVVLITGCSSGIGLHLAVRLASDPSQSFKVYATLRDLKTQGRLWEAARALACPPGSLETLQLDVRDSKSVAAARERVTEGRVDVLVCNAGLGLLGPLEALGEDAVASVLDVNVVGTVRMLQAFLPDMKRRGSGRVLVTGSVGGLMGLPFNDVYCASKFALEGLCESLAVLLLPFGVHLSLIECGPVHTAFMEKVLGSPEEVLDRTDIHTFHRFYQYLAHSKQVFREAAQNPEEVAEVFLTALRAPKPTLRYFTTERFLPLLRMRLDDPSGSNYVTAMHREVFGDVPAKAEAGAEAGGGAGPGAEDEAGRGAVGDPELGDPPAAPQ", "test": "In vitro enzymatic activity, recombinant human 17β-HSD 1 (estrone reduction)", "type": "biochemical", "conditions": "pH 6.6, read-out: Observed % inhibition", "source_text": "(§1) Full length cDNAs of several 17β-HSDs type 1 originating from different species were cloned either into the pQE30 vector (human 17β-HSD 1, coding for acc. no. NP_000404) for expression as His-Tag protein or into a modified pGex-2T vector [63] (mouse 17β-HSD 1, acc. no. NP_034605; rat 17β-HSD 1, acc. no. NP_036983; marmoset 17β-HSD 1, acc. no. AAG01115; porcine 17β-HSD 1, acc. no. NP_001121944) for expression as GST-fusion proteins. The marmoset 17β-HSD 1 enzyme sequence was updated by the missing N-terminal part (AF272013) and the new porcine sequence was submitted to GenBank (NP_001121944). Human 17β-HSDs 2, 4, 5 (AKR1C3, the latter kindly provided by Dr. T. Penning) and 7 were all cloned into the modified pGEX-2T vector. For 17β-HSD 4 only the SDR-domain converting the steroids was subcloned. Plasmids were transformed into E.coli BL21 DE3 Codon Plus RP (Stratagene) and enzyme expression was induced by 0.5 mM IPTG. After 4h incubation at 37°C with continuous shaking bacteria were pelleted by centrifugation at 10.000×g. Pellets were stored until use at −20°C.\n(§2) The bacteria containing recombinant enzymes were resuspended in PBS and enzymatic assays were performed in 100 mM sodium phosphate buffer at pH 6.6 for the reductive reaction and at pH 7.7 for the oxidative reaction. […] All substrates were purchased from NEN/Perkin Elmer. The cofactors NADPH (Sigma; for reductive reactions) and NAD^+ (Serva, for oxidative reactions) were used at final concentrations of 0.5 mg/ml. […] The incubation at 37°C was stopped with 0.21 M ascorbic acid in methanol∶acetic acid 99∶1 (v∶v) after the time needed to convert approximately 30% of the substrate in a control assay with 1% DMSO, without inhibitor candidates. […] The solvent used was acetonitrile∶water (43∶57, v∶v) at a flow rate of 1 ml/min. Radioactivity was detected by online-scintillation counting (Berthold LB506D) after mixing with ReadyFlowIII (Beckman). Conversion was calculated from integration of substrate and product peaks. […] All assays were run in duplicates of two independent experiments and mean values are reported. The IC50 values were determined by the One Ligand Binding model of SigmaPlot kinetics module."}, "marmoset 17β-HSD 1": {"target": "T2, marmoset 17β-HSD 1 (Callithrix jacchus, UniProt Q9GME2)", "T2 sequence (Q9GME2 1-314)": "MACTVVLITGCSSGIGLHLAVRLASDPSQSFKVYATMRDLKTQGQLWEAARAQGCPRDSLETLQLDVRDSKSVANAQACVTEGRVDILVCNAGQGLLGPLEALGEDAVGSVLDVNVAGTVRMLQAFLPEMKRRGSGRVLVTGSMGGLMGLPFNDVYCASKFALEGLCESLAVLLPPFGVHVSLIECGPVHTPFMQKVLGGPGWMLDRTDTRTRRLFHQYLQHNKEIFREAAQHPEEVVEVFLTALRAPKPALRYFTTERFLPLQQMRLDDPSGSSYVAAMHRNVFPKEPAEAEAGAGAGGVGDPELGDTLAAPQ", "test": "In vitro enzymatic activity, recombinant marmoset 17β-HSD 1", "type": "biochemical", "conditions": "marmoset 17β-HSD 1; 2 µM compound; 15 nM 3H-estrone; read-out: Observed % inhibition", "source_text": "as §1, §2"}, "porcine 17β-HSD 1": {"target": "T3, porcine 17β-HSD 1 (Sus scrofa, UniProt B2X0A4)", "T3 sequence (B2X0A4 1-321)": "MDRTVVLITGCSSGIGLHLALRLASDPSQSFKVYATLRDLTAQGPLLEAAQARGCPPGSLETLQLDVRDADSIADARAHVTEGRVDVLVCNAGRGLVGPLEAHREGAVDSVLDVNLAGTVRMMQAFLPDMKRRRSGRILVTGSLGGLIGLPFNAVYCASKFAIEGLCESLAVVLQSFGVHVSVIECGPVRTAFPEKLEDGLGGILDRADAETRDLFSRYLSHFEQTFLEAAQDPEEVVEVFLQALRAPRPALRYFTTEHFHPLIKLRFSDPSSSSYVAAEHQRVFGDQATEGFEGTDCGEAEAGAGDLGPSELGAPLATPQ", "test": "In vitro enzymatic activity, recombinant porcine 17β-HSD 1", "type": "biochemical, pig", "conditions": "read-out: Observed % inhibition", "source_text": "as §1, §2"}, "mouse 17β-HSD 1": {"target": "T4, mouse 17β-HSD 1 (Mus musculus, UniProt P51656)", "T4 construct": "Full length cDNAs of several 17β-HSDs type 1 originating from different species were cloned; made in house; host or cells: E.coli BL21 DE3 Codon Plus RP", "T4 sequence (P51656 1-344)": "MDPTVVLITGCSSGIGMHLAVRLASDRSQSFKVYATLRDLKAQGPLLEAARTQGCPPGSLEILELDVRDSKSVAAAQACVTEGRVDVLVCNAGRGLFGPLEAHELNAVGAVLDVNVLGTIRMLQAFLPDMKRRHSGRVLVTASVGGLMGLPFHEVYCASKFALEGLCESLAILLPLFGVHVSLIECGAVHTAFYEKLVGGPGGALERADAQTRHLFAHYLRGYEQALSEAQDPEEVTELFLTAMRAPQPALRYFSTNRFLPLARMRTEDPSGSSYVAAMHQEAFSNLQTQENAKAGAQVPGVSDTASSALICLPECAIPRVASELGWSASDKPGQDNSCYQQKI", "test": "In vitro enzymatic activity, recombinant mouse 17β-HSD 1", "type": "biochemical", "conditions": "2 µM compound, 15 nM 3H-estrone, read-out: Observed % inhibition", "source_text": "as §1, §2"}, "rat 17β-HSD 1": {"target": "T5, rat 17β-HSD 1 (Rattus norvegicus, UniProt P51657)", "T5 construct": "Full length cDNAs of several 17β-HSDs type 1 originating from different species were cloned; made in house; host or cells: E.coli BL21 DE3 Codon Plus RP", "T5 sequence (P51657 1-344)": "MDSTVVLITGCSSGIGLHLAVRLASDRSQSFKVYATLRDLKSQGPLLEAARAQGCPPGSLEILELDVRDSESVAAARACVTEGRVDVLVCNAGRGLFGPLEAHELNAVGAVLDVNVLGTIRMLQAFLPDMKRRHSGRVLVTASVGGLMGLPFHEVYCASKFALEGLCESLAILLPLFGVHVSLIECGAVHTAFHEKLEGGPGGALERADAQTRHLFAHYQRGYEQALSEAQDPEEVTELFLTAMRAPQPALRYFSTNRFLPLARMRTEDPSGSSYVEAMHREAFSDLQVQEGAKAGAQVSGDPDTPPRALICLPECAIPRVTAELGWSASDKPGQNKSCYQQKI", "test": "In vitro enzymatic activity, recombinant rat 17β-HSD 1", "type": "biochemical", "conditions": "2 µM compound, 15 nM 3H-estrone, read-out: Observed % inhibition", "source_text": "as §1, §2"}, "[1]": {"test_system": "17β-HSD 1 orthologs of five species", "test": "In vitro enzymatic activity, 17β-HSD 1 orthologs of five species taken together", "type": "biochemical, human, marmoset, mouse, pig, rat", "conditions": "average over the 17β-HSD 1 orthologs of the species; 2 µM compound"}}, "data": [{"molecule": "C[C@]12CC[C@@H]3c4ccc(O)cc4CC[C@H]3[C@@H]1CCC2=O", "note": "[Compound 6, estrone, reference compound]", "values": [{"measurement": "inhibition at 2 µM", "setting": "human 17β-HSD 1", "result": 101, "unit": "%"}, {"measurement": "inhibition at 2 µM", "setting": "marmoset 17β-HSD 1", "result": 110, "unit": "%"}, {"measurement": "inhibition at 2 µM", "setting": "porcine 17β-HSD 1", "result": 86.3, "unit": "%"}, {"measurement": "inhibition at 2 µM", "setting": "mouse 17β-HSD 1", "result": 101, "unit": "%"}, {"measurement": "inhibition at 2 µM", "setting": "rat 17β-HSD 1", "result": 79.1, "unit": "%"}, {"measurement": "Observed % inhibition, average", "setting": "[1]", "result": 95.4, "unit": "%"}]}]}
